The values that follow come from patent US20230167437A1, “COMPOSITIONS FOR TREATING CANCER WITH KRAS MUTATIONS AND USES THEREOF” (Aadigen, LLC, priority 2020, published 2023).

Common to all, as to type: cell-based, human
One series has as its system KRAS 35G>A mutant G12D. Nature of the series: Indel frequencies at the endogenous target sequences (T7E1 / deep sequencing) after ADGN/Cas9 mRNA/gRNA transfection. Conditions: for indel frequencies: deep sequencing, 72 hours after transfection, Cas9 mRNA 0.1 μg, gRNA 0.2 μg; for disruption of G12D mutant KRAS (FIG. 2A): G12D cancer cells vs wild type KRAS cells (HT29 or HS-68). How it is done: (§1) Complex formation with mRNA:gRNA: ADGN peptide/mRNA/gRNA particles were prepared at a 20:1:1 molar ratio. ADGN/Cas9mRNA/sgRNA complexes were prepared at a 20/1/1 molar ratio with 0.5 μg mRNA: 1.5 μg sgRNA and 5% Glucose or DMEM (example for 96 well plates). […] Premixed Cas9 mRNA/gRNA were prepared in sterile water at room temperature in a glass vial (1-4 ml). ADGN-peptide solution was added dropwise (1 drop/sec) under magnetic agitation at 400 rpm to obtain a 1:2 ratio, and incubated for 30 min at room temperature or 37° C. Just before transfection, 150 μl Glucose or DMEM was added and the solution was mixed under magnetic agitation at 400 rpm for 1 minute. Then the solution was incubated for 5 min at 37° C. Then the complexes was ready for cell transfection or IV administration. Prior to IV administration, complexes were diluted in sucrose 5% solution.
(§2) Transfection protocol. The following protocols are reported for 24/48/96 well plate format transfection. Cells should be trypsinized and seeded a day prior transfection Cells were cultured in Dulbecco's Modified Eagle's Medium (DMEM), supplemented with 2 mM glutamine, 1% antibiotics (streptomycin 10,000 μg/mL, penicillin, 10,000 IU/mL) and 10% (w/v) foetal calf serum (FCS), at 37° C. in a humidified atmosphere containing 5% CO2. 96 well plates seeded with 50,000 cells, the day prior transfection, grown to 60-80% confluence and set up to be at around 70% confluence at the day of transfection. Before transfection, cells are washed twice with DMEM (without FBS and pen/strep) (100 μl/well). Cells were then overlaid with 25 μl of complex solution, mixed gently and incubated for 10 min at 37° C.+5% CO2. 50 μl of fresh DMEM (without FBS and Antibiotics) was added and cells were incubated for 2 h at 37° C.+5% CO2 (time of exposure can be adjusted based on sensitivity of the cells). 250 μL of DMEM (containing 10% FCS and 1% antibiotics) were then added without removing the overlay of ADGN peptide/mRNA complexes. Cells were returned to the incubator (37° C., 5% CO2) and analyzed 48 hours to 72 hours post transfection.
(§3) Nine different gRNAs targeting KRAS 35G>A mutant G12D (gRNA35A1, gRNA35A2, gRNA35A3, gRNA35A4, gRNA35A5, gRNA35A6; gRNA35A7, gRNA35A8, gRNA35A9) were evaluated on LS513, Panc1, PK-45H, and PK1 cancer cells harboring G12D KRAS mutation. Cas9 mRNA (0.1 μg) and gRNA (0.2 μg) were associated with ADGN-peptide at molar ratio 20/1 (peptide/nucleic acid). LS513, Panc1, PK-45H, PK1, HS-68 and HT-29 cells were cultured in 48 well plate format and treated with free mRNACas9-gRNA, or ADGN/mRNACas9:gRNA complex. Indel frequencies at the endogenous target sequences was evaluated 72 hours after transfection by either T7E1 method or deep sequencing. Cell proliferation was analyzed over a period of 5 days using CellTiter Glow kits on GlowMax (Promega).
(§4) In order to confirm the specificity of sgRNAs targeting G12V, G12C or G12D KRAS mutation, gRNA35T3 targeting G12V, gRNA34T6 targeting G12C, and gRNA35A5 targeting G12D were evaluated on a large panel of cancer cells harboring different KRAS mutations including SW403, SW480, PANC1, PK-45H, PK-1, MIA-PACA, H23, H358, HT-29, HS-68 and LS513. Cas9 mRNA (0.2 μg) and gRNA (0.4 μg) were associated with ADGN peptide at molar ratio 20/1 (peptide/nucleic acid). Cells were cultured in 48 well plate format and treated with free mRNACas9-gRNA, or ADGN/mRNACas9:gRNA complex. Indel frequencies at the endogenous target sequences was evaluated 72 hours after transfection by either T7E1 method and cell proliferation was analyzed over a period of 5 days using CellTiter Glow kits on GlowMax (Promega).

Another series has as its system wild type KRAS. The series is described as above. The conditions noted are these: deep sequencing, 72 hours after transfection, Cas9 mRNA 0.1 μg, gRNA 0.2 μg. Here is the method:
as §1, §2
(§5) Nine different gRNAs targeting KRAS 35G>T mutant G12V (gRNA35T1, gRNA35T2, gRNA35T3, gRNA35T4, gRNA35T5, gRNA35T6, gRNA35T7, gRNA35T8 and gRNA35T9 (see FIG. 18)) were evaluated on SW403 and SW480 cancer cells harboring G12V KRAS mutation. Cas9 mRNA (0.15 μg) and gRNA (0.2 μg) were associated with ADGN-peptides as reported in experimental procedure. SW403, SW480 and HT-29 cells were cultured in 48 well plate format and treated with free mRNACas9-gRNA, or ADGN-100/mRNACas9:gRNA complex. Indel frequencies at the endogenous target sequences was evaluated 72 hours after transfection by either T7E1 method and by deep sequencing. Cell proliferation was analyzed over a period of 5 days using CellTiter Glow kits on GlowMax (Promega).
as §3

A further series deals with KRAS 34G>T mutant G12C. The description is as above. The conditions noted are these: Mia-PACA, H23, H358 vs HT29 and PANC1 cells. Here is the method: as §1, §2
Eight different gRNAs targeting KRAS 34G>T mutant G12C (gRNA34T1, gRNA34T2, gRNA34T3, gRNA34T4, gRNA34T5, gRNA34T6, gRNA34T7 and gRNA34T8) were evaluated on MIA-PACA, H23, H358, H29 and PANC1 cells. Cas9 mRNA (0.1 μg) and gRNA (0.2 μg) were associated with ADGN peptide at molar ratio 20/1 (peptide/nucleic acid). MIA-PACA, H23, H358, PANC1 and HT29 cells were cultured in 48 well plate format and treated with free mRNACas9-gRNA, or ADGN/mRNACas9:gRNA complex. Indel frequencies at the endogenous target sequences was evaluated 72 hours after transfection by either T7E1 method or deep sequencing. Cell proliferation was analyzed over a period of 5 days using CellTiter Glow kits on GlowMax (Promega).
as §4

In series [1] the test system is PANC1, PK1, LS513 and PK-45H cells. Nature of the series: Cell proliferation over 5 days (CellTiter Glow). The conditions noted are these: PANC1, PK1, LS513, PK-45H vs HT29 or HS-68 cells harboring KRAS WT. Here is the method:
as §2, §3
On the technique in general: In ATP-based viability assays light output follows the ATP content of the culture.

In a further series the test system is KRAS 35G>T mutant G12V. Nature of the series: Indel frequencies at the endogenous target sequences (T7E1 / deep sequencing) after ADGN/Cas9 mRNA/gRNA transfection. The conditions noted are these: SW403, SW480 vs wild type KRAS HT29 cells; T7E1. Here is the method:
as §1, §2, §5, §4

For the sequence “TTG TGG TAG TTG GAG CTG A (guide TTGTGGTAGTTGGAGCTGA; chemistry not given here) [gRNA35A8, sgRNA target KRAS G12D mutation (35G>A); PAM TGG]”, the indel frequencies came out at 7 ± 1% in the series with KRAS 35G>A mutant G12D (LS513 cells); 9 ± 2% in the series on KRAS 35G>A mutant G12D (PANC1 cells); 18 ± 1% with KRAS 35G>A mutant G12D (PK1 cells); 11 ± 1% in the series on KRAS 35G>A mutant G12D (PK-45H cells); 6 ± 0.1% in the series with wild type KRAS (HS68 cells (WT KRAS)); 2 ± 0.2% in the series with wild type KRAS (HT-29 cells (WT KRAS)).
On to “TGA TGG CGT AGG CAA GAGT (guide TGATGGCGTAGGCAAGAGT; chemistry not given here) [gRNA35A4, sgRNA target KRAS G12D mutation (35G>A); PAM GCC]”, for which the indel frequencies is recorded as 5 ± 2% in the series on KRAS 35G>A mutant G12D (LS513 cells); 4 ± 1% with KRAS 35G>A mutant G12D (PANC1 cells); 9 ± 0.1% in the series on KRAS 35G>A mutant G12D (PK1 cells); 7 ± 2% in the series with KRAS 35G>A mutant G12D (PK-45H cells); 5 ± 0.7% with wild type KRAS (HS68 cells (WT KRAS)); 2 ± 1% in the series with wild type KRAS (HT-29 cells (WT KRAS)).
“AGC TTG TGG CGT AGG CAA (guide AGCTTGTGGCGTAGGCAA; chemistry not given here) [gRNA34T2, sgRNA target KRAS G12C mutation (34G>T); PAM GAG]”: in the series on KRAS 34G>T mutant G12C, the “indel editing and disruption of G12C mutant KRAS (FIG. 3A)” value (“indel editing and disruption … (FIG. 3A)” below) is “inefficient or less specific affecting wild type KRAS”.
Turning to “GTAGTTGGAGCTGATGGCGT (guide GTAGTTGGAGCTGATGGCGT; chemistry not given here) [gRNA35A7, sgRNA target KRAS G12D mutation (35G>A); PAM AGG]”, the “disruption of G12D mutant KRAS (FIG. 2A)” value in the series on KRAS 35G>A mutant G12D is reported as “induced efficient disruption of G12D mutant KRAS”. Also, the indel frequencies with KRAS 35G>A mutant G12D (LS513 cells) worked out at 24 ± 2%; with KRAS 35G>A mutant G12D (PANC1 cells), 47 ± 1%; in the series with KRAS 35G>A mutant G12D (PK1 cells), 31 ± 2%; with KRAS 35G>A mutant G12D (PK-45H cells) it was 35 ± 0.5%; with wild type KRAS (HS68 cells (WT KRAS)), 4 ± 0.4%; in the series with wild type KRAS (HT-29 cells (WT KRAS)), 7 ± 2%. The “inhibition of proliferation or survival (FIG. 2B)” value in series [1] is “specifically inhibit proliferation or survival of PANC1, PK1, LS513 and PK-45H cells”.
For the sequence “GGTAGTTGGAGCTTGTGGCG (guide GGTAGTTGGAGCTTGTGGCG; chemistry not given here) [gRNA34T4, sgRNA target KRAS G12C mutation (34G>T); PAM TAG]”, in the series with KRAS 34G>T mutant G12C, the “indel editing and disruption … (FIG. 3A)” value is on record as “inefficient or less specific affecting wild type KRAS”.
Consider “GCT GAT GGC GTA GGC AA (guide GCTGATGGCGTAGGCAA; chemistry not given here) [gRNA35A9, sgRNA target KRAS G12D mutation (35G>A); PAM GAG]”, for which, in the series with KRAS 35G>A mutant G12D, the “disruption of G12D mutant KRAS (FIG. 2A)” value is “induced efficient disruption of G12D mutant KRAS”. In addition, the indel frequencies in the series with KRAS 35G>A mutant G12D (LS513 cells) was 21 ± 3%; in the series with KRAS 35G>A mutant G12D (PANC1 cells), 25 ± 3%; in the series on KRAS 35G>A mutant G12D (PK1 cells) it was 34 ± 1%; in the series with KRAS 35G>A mutant G12D (PK-45H cells), 18 ± 2%; with wild type KRAS (HS68 cells (WT KRAS)) it was 12 ± 1%; in the series on wild type KRAS (HT-29 cells (WT KRAS)), 17 ± 3%.
Take “CTT GTG GCG TAG GCA AGAGT (guide CTTGTGGCGTAGGCAAGAGT; sgRNA, chemical modifications not given here, further chemistry not given here) [gRNA34T8, sgRNA target KRAS G12C mutation (34G>T); PAM GCC]”: in the series with KRAS 34G>T mutant G12C, the “indel editing and disruption … (FIG. 3A)” value was “inefficient or less specific affecting wild type KRAS”.
Take “AGC TGA TGG CGT AGG CAA (guide AGCTGATGGCGTAGGCAA; chemistry not given here) [gRNA35A3, sgRNA target KRAS G12D mutation (35G>A); PAM GAG]”: the indel frequencies was found to be 9 ± 1% in the series with KRAS 35G>A mutant G12D (LS513 cells); 7 ± 1% with KRAS 35G>A mutant G12D (PANC1 cells); 2 ± 0.5% with KRAS 35G>A mutant G12D (PK1 cells); 4 ± 1% in the series on KRAS 35G>A mutant G12D (PK-45H cells); 4 ± 1% in the series on wild type KRAS (HS68 cells (WT KRAS)); 1 ± 0.5% in the series on wild type KRAS (HT-29 cells (WT KRAS)).
Take “GCT TGT GGC GTA GGC AA (guide GCTTGTGGCGTAGGCAA; sgRNA, chemical modifications not given here, further chemistry not given here) [gRNA34T7, sgRNA target KRAS G12C mutation (34G>T); PAM GAG]”: the “indel editing and disruption … (FIG. 3A)” value in the series on KRAS 34G>T mutant G12C is listed as “inefficient or less specific affecting wild type KRAS”.
As to “TTG TGG TAG TTG GAG CTG T (guide TTGTGGTAGTTGGAGCTGT; chemistry not given here) [gRNA35T7, sgRNA target KRAS G12V mutation (c.35G>T); PAM TGG]”, the “indel editing and disruption of G12V mutant KRAS (FIG. 1A)” value in the series on KRAS 35G>T mutant G12V is “specifically induced indel editing and efficient disruption”.
